# Results: US12187696B2, “Urea motif containing compounds and derivatives thereof as antibacterial drugs” (Technische Universität München, priority 2016, dated 2025)
# Entries after “also recorded” stand apart in the source; their conditions may differ.
# Experiments:
# [1] = test system: Staphylococcus aureus IS050611; assay: Minimal inhibitory concentration (MIC) assay; format: cell-based; conditions: Staphylococcus aureus IS050611 (clinical isolate); B medium
# [2] = test system: Staphylococcus aureus Bk95395; assay: Minimal inhibitory concentration (MIC) assay; format: cell-based; conditions: Staphylococcus aureus Bk95395 (clinical isolate); B medium
# [3] = test system: Staphylococcus aureus VA402525; assay: Minimal inhibitory concentration (MIC) assay; format: cell-based; conditions: Staphylococcus aureus VA402525 (clinical isolate); B medium
# [4] = test system: Staphylococcus aureus NCTC8325; assay: Minimal inhibitory concentration (MIC) assay; format: cell-based; conditions: for MIC: Staphylococcus aureus NCTC8325, B medium
# Description: Minimum inhibitory concentrations (MICs) represent the lowest concentration of sample that will inhibit the visible growth of a microorganism after overnight incubation, and was obtained by a 96 well plate-based assay (Thermo Scientific) with serial dilutions of the probes tested. […] Bacteria were diluted in fresh medium to a concentration of 10^5 CFU/mL. In the case of all other bacteria species tested, fresh media was inoculated 1/10000 and directly used for testing. Diluted bacterial cultures (99 μL) were added to various concentrations of probe (1 μL of the respective stock in DMSO). A growth control containing DMSO (1 μL) and cultivated medium (99 μL) and a sterile control containing fresh medium (100 μL) were run on every 96 well plate in triplicates. After incubation at 37° C. with gentle shaking (200 rpm) for 24 h, the dilution series was analysed for microbial growth, usually indicated by turbidity and/or a pellet of bacteria at the bottom of the well. The lowest concentration in the dilution series at which no growth of bacteria could be observed by eye was defined as the minimum inhibitory concentration (MIC) of the probe. MIC values were determined by three independent experiments with at least triplicate runs for each concentration. […] Both compounds were tested against various bacterial strains. […] The assay was performed as described above.
# [5] = test system: S. aureus NCTC 8325 persister cells; assay: Persister cell assay II; format: cell-based; conditions: TSB, with or without 30 μg/mL oxacillin; 20 h or 70 h; 2.4 μM PK/X17-1-150 or PK/X17-4-011, 24 μM sorafenib or PK/X17-2-011, 5 μg/mL ciprofloxacin
# Description: Persister cell assay II. Tryptic soy broth (50 mL in 250 mL culture flasks) was inoculated 1:1000 with overnight cultures of NCTC 8325 and grown at 37° C. and 200 rpm until an OD600 of 4 was reached or overnight (ON). Serial dilution were prepared and plated to determine the cell numbers in the inoculum. […]. […] After 20 h (A) or 70 h (B) of treatment, cells were harvested, washed two times with PBS (10000×g, 3 min), serially diluted and plated on agar plates for determination of surviving cell numbers.
# Acinetobacter baumannii = assay: Minimal inhibitory concentration (MIC) assay; format: cell-based; conditions: B medium
# [6] = test system: Mycobacterium tuberculosis H37Rv; assay: Minimal inhibitory concentration (MIC) assay; format: cell-based; conditions: 7H9 medium
# Bacillus subtilis = assay: Minimal inhibitory concentration (MIC) assay; format: cell-based; conditions: LB medium
# Plasma stability assay = format: in vitro ADME, mouse; conditions: 10 μM, 37° C., up to 6 h (360 min), LC-MS
# Description: The in vitro stability was tested by a LC-MS based method. Mouse plasma was purchased from biowest (mouse plasma w/lithium heparin, sterile filtered S2162-010) and used as a 1:1 dilution with potassium phosphate buffer (0.1 M, pH 7.4). Final assay concentration of DMSO from compound stocks was 1%. AV1, a β-lactone with known low plasma stability, was used as positive control at a concentration of 50 μM. The compound stability test in plasma was initiated by the addition of 10 μM compound of interest (50 μM in the case of AV1) to 250 μL of diluted mouse plasma at 37° C. Directly after compound addition the reaction mixture was shortly mixed by vortexing and the first sample of 25 μL was withdrawn (time point 0 min). Every sample was quenched immediately by the addition 30 μL of pre-chilled acetonitrile. The reaction mixture was incubated at 37° C. with gentle shaking at 600 rpm. At certain time points (5, 10, 20, 30, 60, 120, 240, 360 min) additional samples (25 μL) were taken for every test compound, quenched as described and stored at −20° C. […] Quantitative LC-MS analysis was performed by LCQ-Fleet Ion Trap Mass Spectrometer equipped with an APCI ion source and a DionexHPLC system using a Waters Xbridge BEH130 C18 column (5 μM 4.6×100 mm). […] Plasma stability was determined in three independent experiments.
# [7] = test system: Staphylococcus aureus VA418879; assay: Minimal inhibitory concentration (MIC) assay; format: cell-based; conditions: Staphylococcus aureus VA418879 (clinical isolate); B medium
# Pseudomonas aeruginosa = assay: Minimal inhibitory concentration (MIC) assay; format: cell-based; conditions: B medium
# [8] = test system: Staphylococcus aureus DSM18827; assay: Minimal inhibitory concentration (MIC) assay; format: cell-based; conditions: B medium
# [9] = test system: Staphylococcus aureus USA300; assay: Minimal inhibitory concentration (MIC) assay; format: cell-based; conditions: B medium
# [10] = biological target: T1, Signal peptidase IB enzyme (SpsB) (Staphylococcus aureus, UniProt P0A070); assay: SpsB FRET peptidase assay with membrane fraction; conditions: for activity of SpsB: 100 μM compound, SpsB-containing membrane fraction of S. aureus, DMSO treated control 1.8 A·U/s; for SpsB peptidase activity (in words): FRET assay, 100 μM, compared to DMSO treated control
# T1 sequence (P0A070 1-191): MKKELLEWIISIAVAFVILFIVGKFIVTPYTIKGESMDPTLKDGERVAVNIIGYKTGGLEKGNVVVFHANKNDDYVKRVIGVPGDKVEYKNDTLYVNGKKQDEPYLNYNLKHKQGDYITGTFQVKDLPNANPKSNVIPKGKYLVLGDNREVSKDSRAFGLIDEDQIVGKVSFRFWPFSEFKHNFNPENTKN
# S. aureus Mu50 = assay: Minimal inhibitory concentration (MIC) assay; format: cell-based; conditions: Staphylococcus aureus, B medium
# [11] = test system: Staphylococcus aureus IS050678; assay: Minimal inhibitory concentration (MIC) assay; format: cell-based; conditions: Staphylococcus aureus IS050678 (clinical isolate); B medium
# Enterobacter aerogenes = assay: Minimal inhibitory concentration (MIC) assay; format: cell-based; conditions: Klebsiella aerogenes, B medium
# [12] = test system: Staphylococcus aureus VA409044; assay: Minimal inhibitory concentration (MIC) assay; format: cell-based; conditions: Staphylococcus aureus VA409044 (clinical isolate); B medium
Compound,MIC [1] [µM],MIC [2] [µM],MIC [3] [µM],MIC [4] [µM],viable persister cells (CFU/mL) vs DMSO control [5],MIC (Acinetobacter baumannii) [µM],MIC [6] [µM],MIC (Bacillus subtilis) [µM],stability in mouse plasma (Plasma stability assay),MIC [7] [µM],MIC (Pseudomonas aeruginosa) [µM],MIC [8] [µM],MIC [9] [µM],activity of SpsB [10] [A·U/s],MIC (S. aureus Mu50) [µM],MIC [11] [µM],MIC (Enterobacter aerogenes) [µM],MIC [12] [µM],further results
"O=C(Nc1ccc2c(c1)OC(F)(F)O2)Nc1ccc(Cl)c(C(F)(F)F)c1 [Example 4, 1-(4-Chloro-3-(trifluoromethyl)phenyl)-3-(2,2-difluorobenzo[d][1,3]dioxol-5-yl)urea]",0.3,0.3,0.3,0.3,significant reduction of viable cells,10,2,1,excellent stability in plasma for several hours,0.3,> 100,0.3,0.3,4.3,0.3,0.3,> 100,0.3,"IC50 ([4]; Staphylococcus aureus, NCTC8325, inhibition of bacterial growth of S. aureus NCTC 8325, obtained by MIC assay): 300 nM; SpsB peptidase activity (in words) ([10]; listed as PK/X17-1-150): increased SpsB peptidase activity; also recorded: stimulates peptidase activity"
"CNC(=O)c1cc(Oc2ccc(NC(=O)Nc3ccc(Cl)c(C(F)(F)F)c3)cc2)ccn1 [Sorafenib, reference compound]",3,5,5,3,significant reduction of viable cells,> 100,25,5,excellent stability in plasma for several hours,5,> 100,3,3,2.6,3,5,> 100,3,SpsB peptidase activity (in words) [10]: increased SpsB peptidase activity; also recorded: stimulates peptidase activity
